Measurements reported in patent publication US20060111357A1, “Quinoline compounds for use in mch receptor related disorders” (priority 2003, published 2006).
Where two headings read alike, the source gives them in different places.

Legend:
human MCH-1 receptor [1] = target: T1, human MCH-1 receptor (Homo sapiens, UniProt Q99705); assay: Phosphatidylinositol (IP3) assay, MCH-stimulated turnover; format: cell-based
T1 construct: expressed in transfected cells; host or cells: transiently transfected COS-7 cells or stably transfected CHO cells (pcDNA3.1)
T1 sequence (Q99705 whole entry): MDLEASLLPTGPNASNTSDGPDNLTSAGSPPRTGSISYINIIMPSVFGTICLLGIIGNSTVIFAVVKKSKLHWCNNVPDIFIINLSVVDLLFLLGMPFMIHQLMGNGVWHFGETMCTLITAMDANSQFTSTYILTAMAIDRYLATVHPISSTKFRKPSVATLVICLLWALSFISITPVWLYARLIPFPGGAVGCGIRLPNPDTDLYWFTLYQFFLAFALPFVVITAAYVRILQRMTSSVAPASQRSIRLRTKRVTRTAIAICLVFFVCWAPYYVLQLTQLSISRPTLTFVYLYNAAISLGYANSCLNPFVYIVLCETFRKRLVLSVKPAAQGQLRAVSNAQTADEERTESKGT
Method: (§1) Transfections and Tissue Culture—The cDNA encoding the human MCH-1 receptor was cloned from a human brain cDNA library and cloned into the eukaryotic expression vector pcDNA3.1 (Invitrogen). Assays were performed on transiently transfected COS-7 cells or stably transfected CHO (Chinese Hamster Ovary) cells, expressing the human MCH-1 receptor in pcDNA3.1. […] Clones were screened by a MCH receptor radioligand binding assay (as described below).
Phosphatidylinositol assay—To assay phosphatidylinositol turnover, transiently transfected COS-7 cells or stably transfected CHO cells, expressing human MCH-1 receptor (2×10^5 cells/well) were incubated for 24 h with 5 μCi of (^3H]-myo-inositol (Amersham Pharmacia Biotech) in 0.5 ml inositol-free culture medium. Cells were washed twice in PI-buffer: 20 mM HEPES, pH 7.4, supplemented with 140 mM NaCl, 5 mM KCl, 1 mM MgSO4, 1 mM CaCl2, 10 mM glucose, 0.02% (w/v) bovine serum; and were incubated in 0.5 ml PI-buffer supplemented with 10 mM LiCl at 37° C. for 45 min.
Phosphatidylinositol turnover was stimulated by submaximal concentrations of MCH, i.e. 10 nM in the presence of increasing amounts of ligand. The ligand was added 5 min. before adding the agonist (MCH). Cells were extracted with 10 mM ice-cold Formic acid, and the generated [^3H]-inositol phosphates were purified on Bio-Rad AG 1-X8 anion-exchange resin. Determinations were made in duplicate. PI data were analyzed and IC50 values determined by non-linear regression using the Prism software (GraphPad software, San Diego).

human MCH-1 receptor [2] = target: T1, human MCH-1 receptor; assay: MCH receptor binding ([125I]-MCH competition binding / SPA)
Method: as §1
Radioligand Binding Assay—Transiently transfected COS-7 cells or stably transfected CHO cells, expressing human MCH-1 receptor were seeded in multi-well culture plates one day before the assay. The number of cells per well was determined by the apparent expression efficiency of the cell line aiming at 5-10% binding of the added radioligand. […] The assay was performed in duplicate. Nonspecific binding was determined as the binding in the presence of 1 μM MCH (Bachem). Binding data were analyzed and IC50 values determined by non-linear regression using the Prism software (GraphPad software, San Diego). Values of the dissociation and inhibition constants (Kd and Ki) were estimated from competition binding using the equations Kd=IC50-L and Ki=IC50/(1+L/Kd), respectively, where L is the concentration of radioligand.
Membranes and beads were pre-incubated for 20 min. […] Moreover, CHO-K1 membranes expressing the hMCH receptor were purchased from Euroscreen (ES-370-M) and a final concentration of 2 μg/well were used. Binding data were analyzed and IC50 values determined by non-linear regression using the Prism software (GraphPad software, San Diego). Values of the inhibition constant (Ki) were estimated from competition binding using the equation Ki=IC50/(1+L/Kd), where L and Kd are the concentration and affinity constant, respectively, of the radioligand.

[3] = risk of Torsades de Pointes, from www.torsades.org; cited from earlier work
HERG channels [4] = target: T2, HERG channels (Homo sapiens, UniProt Q12809)
T2 sequence (Q12809 whole entry): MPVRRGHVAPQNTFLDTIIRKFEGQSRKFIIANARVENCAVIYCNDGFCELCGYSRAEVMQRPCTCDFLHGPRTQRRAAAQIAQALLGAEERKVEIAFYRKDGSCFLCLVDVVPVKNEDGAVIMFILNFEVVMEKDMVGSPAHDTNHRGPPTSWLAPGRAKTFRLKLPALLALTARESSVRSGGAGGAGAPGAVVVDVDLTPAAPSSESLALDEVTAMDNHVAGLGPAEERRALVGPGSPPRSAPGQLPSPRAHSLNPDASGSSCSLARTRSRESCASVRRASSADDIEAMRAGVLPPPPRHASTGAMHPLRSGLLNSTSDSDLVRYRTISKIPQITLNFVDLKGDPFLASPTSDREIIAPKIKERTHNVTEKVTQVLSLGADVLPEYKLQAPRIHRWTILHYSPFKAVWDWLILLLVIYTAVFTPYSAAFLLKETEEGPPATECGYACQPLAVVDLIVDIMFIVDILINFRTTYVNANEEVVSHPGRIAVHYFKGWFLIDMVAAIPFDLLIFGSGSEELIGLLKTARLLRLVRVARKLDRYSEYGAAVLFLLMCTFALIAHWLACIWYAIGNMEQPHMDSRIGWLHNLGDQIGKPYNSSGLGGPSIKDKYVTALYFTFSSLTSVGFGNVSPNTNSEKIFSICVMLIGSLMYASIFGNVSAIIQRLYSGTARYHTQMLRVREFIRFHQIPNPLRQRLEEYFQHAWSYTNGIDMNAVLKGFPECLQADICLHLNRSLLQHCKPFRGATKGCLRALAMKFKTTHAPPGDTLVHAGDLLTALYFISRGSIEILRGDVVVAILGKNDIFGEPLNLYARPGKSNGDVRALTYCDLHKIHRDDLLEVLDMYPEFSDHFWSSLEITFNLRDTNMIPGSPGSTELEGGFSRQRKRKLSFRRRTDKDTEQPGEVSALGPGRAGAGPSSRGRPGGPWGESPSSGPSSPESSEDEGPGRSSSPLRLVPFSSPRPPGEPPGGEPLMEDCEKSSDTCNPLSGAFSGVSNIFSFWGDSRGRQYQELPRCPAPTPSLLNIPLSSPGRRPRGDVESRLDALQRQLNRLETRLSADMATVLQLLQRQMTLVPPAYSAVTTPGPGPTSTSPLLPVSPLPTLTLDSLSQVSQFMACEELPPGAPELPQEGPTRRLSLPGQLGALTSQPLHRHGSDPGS

HERG channels [5] = target: T2, HERG channels; assay: HERG selectivity method, whole-cell patch-clamp recordings
[6] = stimulated by 10 nM MCH, read-out: IP3 IC50
Throughout, for Risk Group: key: 1: Drugs that are generally accepted by authorities to have a risk of Torsades de Pointes (TdP); 2: Drugs that in some reports may be associated with TdP but at this time lack substantial evidence; 4: Drugs that, in some reports, have been weakly associated with TdP but that when used in usual dosages are unlikely to be a risk for TdP.

IC50 (human MCH-1 receptor [1]; [6]) [nM]	IC50 (human MCH-1 receptor [2]) [nM]	Compound	Risk Group [3]	other results
16	10	Cc1cc(NCCN2CCOCC2)nc2ccc(NC(=O)COc3ccc(OC(F)(F)F)cc3)cc12 [Example 42, N-[4-Methyl-2-(2-morpholin-4-yl-ethylamino)-quinolin-6-yl]-2-(4-trifluoromethoxy-phenoxy)-acetamide]	–	–
–	–	CCCCc1oc2ccccc2c1C(=O)c1cc(I)c(OCCN(CC)CC)c(I)c1 [Amiodarone]	1	–
–	–	CN(C)CCC=C1c2ccccc2CCc2ccccc21 [Amitriptyline]	4	–
63	10	Cc1nc(N(C)CCCN(C)C)nc2ccc(NC(=O)COc3ccc(Cl)cc3Cl)cc12 [Example 137, 2(2,4-Dichlorophenoxy)N{2[(3-dimethylaminopropyl)methyl-amino]-4-methyl-quinazolin-6-yl}-acetamide]	–	–
–	–	CC(=O)N1CCN(c2ccc(OCC3COC(Cn4ccnc4)(c4ccc(Cl)cc4Cl)O3)cc2)CC1 (stereo not drawn) [Ketoconazole]	4	–
–	–	O=C(CCCN1CCC(O)(c2ccc(Cl)cc2)CC1)c1ccc(F)cc1 [Haloperidole]	1	Ki (HERG channels [4]): 170 nM
–	–	CN1CCN(CC/C=C2/c3ccccc3Sc3ccc(S(=O)(=O)N(C)C)cc32)CC1 [Cis-Thiothixene]	–	Ki (HERG channels [5]; read-out: Ki in μM ± S.D. (#), HEK 293 cells stably expressing HERG+KCNE1, tail-current block, room temperature, Ki=koff/kon): 8.6 ± 2.7 µM
–	–	CNCCC(Oc1ccc(C(F)(F)F)cc1)c1ccccc1 (stereo not drawn) [Fluoxetine]	4	–
–	–	Cc1cc(OCCN(C)C)nc2ccc(NC(=O)COc3ccc(Cl)cc3Cl)cc12 [Example 76, 2-(2,4-Dichloro-phenoxy)-N-[2-(2-dimethylamino-ethoxy)-4-methyl-quinolin-6-yl]-acetamide]	–	IC50 (human MCH-1 receptor [1]): 135 nM
–	–	CN1CCN(C(c2ccccc2)c2ccc(Cl)cc2)CC1 (stereo not drawn) [Chlorcyclizine]	–	Ki (HERG channels [5]): 4 ± 1.4 µM
–	–	O=c1[nH]c2ccccc2n1C1CCN(CCCC(c2ccc(F)cc2)c2ccc(F)cc2)CC1 [Pimozide]	1	–
–	–	CC(C)COCC(CN(Cc1ccccc1)c1ccccc1)N1CCCC1 (stereo not drawn) [Bepridil]	1	–
–	–	CNCCCN1c2ccccc2CCc2ccccc21 [Desipramine]	4	–
23	50	Cc1cc(N2CCN(CCO)CC2)nc2ccc(NC(=O)COc3ccc(OC(F)(F)F)cc3)cc12 [Example 38, N-{2-[4-(2-Hydroxy-ethyl)-piperazin-1-yl]-4-methyl-quinolin-6-yl}-2-(4-trifluoromethoxy-phenoxy)-acetamide]	–	–
720	37	Cc1cc(N(C)CCN(C)C)nc2ccc(NC(=O)CCc3ccc(OC(F)(F)F)cc3)cc12 [Example 98, N-{2-[(2-Dimethylamino-ethyl)-methyl-amino]-4-methyl-quinolin-6-yl}-3-(4-trifluoromethoxy-phenyl)-propionamide]	–	–
–	–	CN(C)CCC=C1c2ccccc2COc2ccccc21 [Doxepine]	4	–

IC50 (human MCH-1 receptor [1]; [6]) [nM]	IC50 (human MCH-1 receptor [2]) [nM]	Compound	Risk Group [3]	other results
2000	280	Cc1cc(N2CCN(C)CC2)nc2ccc(NC(=O)C(C)Oc3ccc(Cl)cc3Cl)cc12 (stereo not drawn)	–	–
–	–	Clc1ccc2c(c1)C(N1CCNCC1)=Nc1ccccc1O2 [Amoxapine]	4	–
–	–	OCCN1CCN(CCCN2c3ccccc3Sc3ccc(C(F)(F)F)cc32)CC1 [Fluphenazine]	–	Ki (HERG channels [5]): 2.5 ± 0.57 µM
42	11	Cc1cc(N2CCN(C)CC2)nc2ccc(NC(=O)/C=C/c3ccc(OC(F)(F)F)cc3)cc12 [Example 16, (E)-N-[4-Methyl-2-(4-methyl-piperazin-1-yl)-quinolin-6-yl]-3-(4-trifluoromethoxy-phenyl)-acrylamide]	–	–
190	21	Cc1cc(NCC(C)(C)CN(C)C)nc2ccc(NC(=O)COc3ccc(OC(F)(F)F)cc3)cc12 [Example 45, N-[2-(3-Dimethylamino-2,2-dimethyl-propylamino)-4-methyl-quinolin-6-yl]-2-(4-trifluoromethoxy-phenoxy)-acetamide]	–	–
–	–	CN(C)CCCN1c2ccccc2CCc2ccccc21 [Imipramine]	4	–
71	12	Cc1cc(N2CCCNCC2)nc2ccc(NC(=O)COc3ccc(OC(F)(F)F)cc3)cc12 [Example 25, N-(2-[1,4]Diazepan-1-yl-4-methylquinolin-6-yl)-2-(4-trifluoromethoxyphenoxy)-acetamide]	–	–
10	13	CCN1CCCC1CNc1cc(C)c2cc(NC(=O)/C=C/c3ccc(OC(F)(F)F)cc3)ccc2n1 (stereo not drawn) [Example 62, (E)-N-{2-[(1-Ethyl-pyrrolidin-2-ylmethyl)-amino]-4-methyl-quinolin-6-yl}-3-(4-trifluoromethoxy-phenyl)-acrylamide]	–	–
–	–	Cc1nc2n(c(=O)c1CCN1CCC(c3noc4cc(F)ccc34)CC1)CCCC2 [Risperidone]	2	–
–	–	CN(C)CCCN1c2ccccc2Sc2ccc(Cl)cc21 [Chlorpromazine]	1	–
–	22	Cc1cc(NCCN(C(C)C)C(C)C)nc2ccc(NC(=O)COc3ccc(OC(F)(F)F)cc3)cc12 [Example 40, N-[2-(2-Diisopropylamino-ethylamino)-4-methyl-quinolin-6-yl]-2-(4-trifluoromethoxy-phenoxy)-acetamide]	–	–
474	63	Cc1cc(N(C)CCN(C)C)nc2ccc(NC(=O)c3ccc(-c4ccc(C(F)(F)F)cc4)cc3)cc12 [Example 183, 4′-Trifluoromethyl-biphenyl-4-carboxylic acid {2-[(2-dimethylamino-ethyl)-methyl-amino]-4-methyl-quinolin-6-yl}-amide]	–	–
63	41	Cc1cc(N2CCC(N)CC2)nc2ccc(NC(=O)COc3ccc(Cl)cc3Cl)cc12 [Example 33, N-[2-(4-Amino-piperidin-1-yl)-4-methyl-quinolin-6-yl]-2-(2,4-dichloro-phenoxy)-acetamide]	–	–
–	–	CC(C)NCC(O)c1ccc(NS(C)(=O)=O)cc1 (racemic) [(±) sotalol]	1	Ki in μM ± S.D. (#) (HERG channels [4]): No effect at 100 (5)
–	–	CC(CN(C)C)CN1c2ccccc2CCc2ccccc21 (stereo not drawn) [Trimipramine]	4	Ki in μM ± S.D. (#) (HERG channels [4]): No effect at 10
